For one assay, the target named is T1, NURR-1/RXRγ (Homo sapiens, UniProt P48443).
T1 construct: expressed in transfected cells; host or cells: Cos-7 cells
The assay is described as follows: Transactivation test, NURR-1-Gal4/RXRγ, luciferase reporter in Cos-7 cells. Format: cell-based. The settings on record: for EC50: Cos-7 cells, NURR-1-Gal4/RXRγ, luciferase reporter, read-out: hNurr1_RXRgFL EC50; for Emax: COS-7, induction level relative to reference XCT0135908 at 2×10^−5 M (=100%), read-out: hNurr1_RXRgFL Emax (%). On the procedure: (§1) The ability of the compounds according to the invention to behave as an activator of the heterodimers formed by the NURR-1 nuclear receptor and the RXR nuclear receptors was measured by means of an in vitro test. A transactivation test was used as primary selection (screening) test. Cos-7 cells were cotransfected with a plasmid expressing a chimera of the human NURR-1-Gal4 receptor, a plasmid expressing the human RXR receptor (RXRα or RXRγ receptor) and a 5Gal4pGL3-TK-Luc reporter plasmid. The transfctions were carried out using a chemical agent (Jet PEI). The transfected cells were distributed into 384-well plates and left to stand for 21 hours. At time 24 hours the culture medium was changed. The test products were added (final concentration of between 10^''4 and 3×10^-10 M) to the culture medium. After incubation overnight, the lucifeiase expression was measured after addition of SteadyGlo according to the instructions of the manufacturer (Promega). […] The induction levels (Emax) were calculated relative to the basal activity of each heterodimer.

The next assay addresses T2, NURR-1/RXRα (Homo sapiens, UniProt P19793).
T2 construct: expressed in transfected cells; host or cells: Cos-7 cells
Briefly: Transactivation test, NURR-1-Gal4/RXRα, luciferase reporter in Cos-7 cells. The settings on record: for EC50: Cos-7 cells, NURR-1-Gal4/RXRα, luciferase reporter, read-out: hNurr1_RXRaFL EC50; for Emax: COS-7, induction level relative to reference XCT0135908 at 2×10^−5 M (=100%), read-out: hNurr1_RXRaFL Emax (%). In kind it is cell-based. On the procedure:
as §1
(In general: A reporter such as luciferase makes a cellular process visible.)

Where [1] appears, read: induction level relative to reference XCT0135908 at 2×10^−5 M (=100%).

These results are taken from patent US20170066717A1, “NEW PHENYLAZETIDINECARBOXYLATE OR -CARBOXAMIDE COMPOUNDS” (INVENTIVA, priority 2014, published 2017).

Where only a bound is given, the exact number is not on record here.

T1 sequence (P48443 whole entry): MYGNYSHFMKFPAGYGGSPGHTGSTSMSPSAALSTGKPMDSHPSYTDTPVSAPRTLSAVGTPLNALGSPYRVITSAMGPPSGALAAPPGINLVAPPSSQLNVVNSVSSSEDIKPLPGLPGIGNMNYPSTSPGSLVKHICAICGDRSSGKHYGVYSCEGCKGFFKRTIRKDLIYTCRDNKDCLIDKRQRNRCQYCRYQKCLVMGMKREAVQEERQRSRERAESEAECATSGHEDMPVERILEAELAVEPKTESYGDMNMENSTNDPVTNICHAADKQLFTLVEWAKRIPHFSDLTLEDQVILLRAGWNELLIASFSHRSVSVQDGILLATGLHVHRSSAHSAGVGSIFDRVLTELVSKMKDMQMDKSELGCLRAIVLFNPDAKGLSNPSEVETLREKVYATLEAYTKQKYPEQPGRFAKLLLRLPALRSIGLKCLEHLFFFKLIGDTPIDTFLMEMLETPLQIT
T1 sequence (P43354 whole entry partner): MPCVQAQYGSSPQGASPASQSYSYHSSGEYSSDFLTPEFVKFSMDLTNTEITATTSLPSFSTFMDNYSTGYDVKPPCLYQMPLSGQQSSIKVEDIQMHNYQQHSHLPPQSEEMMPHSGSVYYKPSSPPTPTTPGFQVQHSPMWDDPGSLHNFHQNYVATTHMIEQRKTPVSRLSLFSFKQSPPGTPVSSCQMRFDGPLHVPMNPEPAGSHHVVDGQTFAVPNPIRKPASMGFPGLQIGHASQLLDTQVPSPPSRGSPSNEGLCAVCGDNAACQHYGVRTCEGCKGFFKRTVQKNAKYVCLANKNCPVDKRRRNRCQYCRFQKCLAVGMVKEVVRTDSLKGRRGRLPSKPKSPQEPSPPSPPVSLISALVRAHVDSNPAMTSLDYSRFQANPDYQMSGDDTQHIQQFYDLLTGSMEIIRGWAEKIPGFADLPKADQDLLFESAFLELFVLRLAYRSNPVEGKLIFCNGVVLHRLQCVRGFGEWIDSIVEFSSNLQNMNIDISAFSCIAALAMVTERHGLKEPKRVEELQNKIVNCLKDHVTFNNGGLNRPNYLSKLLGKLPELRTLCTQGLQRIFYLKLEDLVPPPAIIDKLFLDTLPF
T1 sequence (P04386 1-147 partner limits assumed): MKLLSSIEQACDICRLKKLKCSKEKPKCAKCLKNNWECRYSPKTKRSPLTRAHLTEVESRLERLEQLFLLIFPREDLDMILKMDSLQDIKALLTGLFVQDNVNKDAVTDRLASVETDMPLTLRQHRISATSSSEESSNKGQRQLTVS
T2 sequence (P19793 whole entry): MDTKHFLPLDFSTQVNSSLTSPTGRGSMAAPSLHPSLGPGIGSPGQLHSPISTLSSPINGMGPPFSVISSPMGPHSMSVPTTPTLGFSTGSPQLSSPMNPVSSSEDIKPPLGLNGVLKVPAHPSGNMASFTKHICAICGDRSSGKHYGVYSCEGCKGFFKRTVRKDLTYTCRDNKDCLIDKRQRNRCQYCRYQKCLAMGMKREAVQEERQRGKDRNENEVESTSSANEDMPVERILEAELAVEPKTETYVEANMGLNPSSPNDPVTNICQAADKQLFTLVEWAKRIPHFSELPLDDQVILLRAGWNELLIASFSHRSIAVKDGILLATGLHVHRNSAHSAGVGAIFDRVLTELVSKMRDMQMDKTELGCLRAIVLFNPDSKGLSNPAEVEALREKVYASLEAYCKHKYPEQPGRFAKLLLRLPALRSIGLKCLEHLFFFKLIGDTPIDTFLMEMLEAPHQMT
T2 sequence (P43354 whole entry partner): as the sequence (P43354 whole entry partner) above
T2 sequence (P04386 1-147 partner limits assumed): as the sequence (P04386 1-147 partner limits assumed) above

Regarding `CC1COc2cc(C(F)(F)F)ccc2N1c1cccc(N2CC(C(=O)O)C2)c1` (single isomer, unassigned; isomer 2) [Example 124-2, 1-[3-[3-methyl-7-(trifluromethyl)-2,3-dihydro-1,4-benzoxazin-4-yl]phenyl]azetidine-3-carboxylic acid, isomer 2], the EC50 on NURR-1/RXRγ turned out to be 17 nM; on NURR-1/RXRα, 10 nM. At NURR-1/RXRγ (setting [1]), the “hNurr1_RXRgFL Emax (%)” value is 95%. On NURR-1/RXRα (setting [1]), the “hNurr1_RXRaFL Emax (%)” value was found to be 107%.

Regarding `Cc1cc(-c2cccc(OC(F)(F)F)c2)cc(N2CC(C(=O)O)C2)c1` [Example 1, 1-[3-methyl-5-[3-(trifluoromethoxy)phenyl]phenyl]azetidine-3-carboxylic acid], on NURR-1/RXRγ, the maximum response (Emax) was determined as 108% and the EC50 came out at 69 nM. Also, on NURR-1/RXRα, the Emax came out at 122% and the EC50 turned out to be 41 nM.

Consider `Cc1cc(-c2cc(N(C)C)cc(C(F)(F)F)c2)cc(N2CC(C(=O)O)C2)c1` [Example 2, 1-[3-[3-(dimethylamino)-5-(trifluoromethyl)phenyl]-5-methylphenyl]azetidine-3-carboxylate acid], for which, at NURR-1/RXRγ, the Emax was 119% and the EC50 worked out at 32 nM. Besides, on NURR-1/RXRα, the maximal effect (Emax) was found to be 119% and the concentration giving a half-maximal response (EC50) came out at 19 nM.

With `Cc1cc(-c2cccc(C(C)C)c2)cc(N2CC(C(=O)O)C2)c1` [Example 3, 1-[3-(3-isopropylphenyl)-5-methylphenyl]azetidine-3-carboxylate acid], at NURR-1/RXRγ, the maximum response (Emax) was determined as 97% and the 50% effective concentration (EC50) was 16 nM. Moreover, on NURR-1/RXRα, the Emax amounted to 101% and the EC50 amounted to 13 nM.

Consider `Cc1cc(-c2cccc(N3CCCC3)c2)cc(N2CC(C(=O)O)C2)c1` [Example 4, 1-[3-methyl-5-(3-pyrrolidin-1-ylphenyl)phenyl]azetidine-3-carboxlic acid], for which, at NURR-1/RXRγ, the Emax is 100% and the EC50 is 28 nM. On NURR-1/RXRα, the maximal response (Emax) turned out to be 96% and the EC50 is 38 nM.

For `Cc1cc(-c2cccc(OC(F)F)c2)cc(N2CC(C(=O)O)C2)c1` [Example 5, 1-[3-[3-(difluoromethoxy)phenyl]-5-methylphenyl]azetidine-3-carboxylic acid], at NURR-1/RXRγ, the Emax was determined as 115% and the EC50 stood at 93 nM. At NURR-1/RXRα, the maximum response (Emax) was 124% and the concentration giving a half-maximal response (EC50) came out at 47 nM.

Take `Cc1cc(-c2cccc(N3CCOCC3)c2)cc(N2CC(C(=O)O)C2)c1` [Example 6, 1-[3-methyl-5-(3-morpholinophenyl)phenyl]azetidine-3-carboxylic acid]: at NURR-1/RXRγ, the maximal effect (Emax) turned out to be 101% and the half-maximal effective concentration (EC50) turned out to be 461 nM. Further, at NURR-1/RXRα, the Emax was 111% and the EC50 was 186 nM.

Take `Cc1cc(-c2cc(F)cc(C(F)(F)F)c2)cc(N2CC(C(=O)O)C2)c1` [Example 8, 1-[3-[3-fluoro-5-(trifluoromethyl)phenyl]-5-methluphenyl]azetidine-3-carboxylic acid]: on NURR-1/RXRγ, the Emax was determined as 107% and the half-maximal effective concentration (EC50) is 12 nM. At NURR-1/RXRα, the Emax turned out to be 107% and the EC50 amounted to 5 nM.

Regarding `Cc1cc(-c2ccc3c(c2)C(C)(C)CCC3(C)C)cc(N2CC(C(=O)O)C2)c1` [Example 9, 1-[3-methyl-5-(1,1,4,4-tetramethyltetralin-6-yl)phenyl]azetidine-3-carboxylic acid], the maximal effect (Emax) worked out at 86% on NURR-1/RXRγ and 82% on NURR-1/RXRα. Further, the EC50 at NURR-1/RXRγ was 16 nM; on NURR-1/RXRα it was 7 nM.

`O=C(O)C1CN(c2cccc(-c3cc(F)cc(C(F)(F)F)c3)c2)C1` [Example 13, 1-[3-[3-fluoro-5-(trifluoromethyl)phenyl]phenyl]azetidine-3-carboxylic acid]: on NURR-1/RXRγ, the Emax is 102% and the EC50 was 116 nM. Besides, on NURR-1/RXRα, the Emax turned out to be 105% and the concentration for a half-maximal effect (EC50) stood at 32 nM.

In the case of `O=C(O)C1CN(c2cccc(-c3cccc(C(F)(F)F)c3)c2)C1` [Example 14, 1-[3-[3-(trifluoromethyl)phenyl]phenyl]azetidine-3-carboxylic acid], at NURR-1/RXRγ, the maximal effect (Emax) is 106% and the 50% effective concentration (EC50) turned out to be 114 nM. Further, at NURR-1/RXRα, the maximum response (Emax) worked out at 99% and the half-maximal effective concentration (EC50) was found to be 53 nM.

Regarding `Cc1cc(-c2cccc(C(F)(F)F)c2C)cc(N2CC(C(=O)O)C2)c1` [Example 15, 1-[3-methyl-5-[2-methyl-3-(trifluoromethyl)phenyl]phenyl]azetidine-3-carboxylic acid], at NURR-1/RXRγ, the Emax turned out to be 85% and the half-maximal effective concentration (EC50) came to 43 nM. Also, on NURR-1/RXRα, the maximum response (Emax) was 95% and the EC50 was determined as 22 nM.

As for `Cc1cc(-c2cc(Cl)cc(C(F)(F)F)c2)cc(N2CC(C(=O)O)C2)c1` [Example 16, 1-[3-[3-chloro-5-(trifluoromethyl)phenyl]-5-methylphenyl]azetidine-3-carboxylic acid], at NURR-1/RXRγ, the Emax came to 103% and the EC50 came to 4 nM. Moreover, on NURR-1/RXRα, the maximal effect (Emax) amounted to 119% and the EC50 was found to be 2 nM.

As to `Cc1cc(-c2cccc(N3CCCCC3)c2)cc(N2CC(C(=O)O)C2)c1` [Example 17, 1-[3-methyl-5-[3-(1-piperidyl)phenyl]phenyl]azetidine-carboxylic acid], at NURR-1/RXRγ, the maximum response (Emax) is 84% and the EC50 was determined as 119 nM. Moreover, at NURR-1/RXRα, the maximal response (Emax) is 99% and the half-maximal effective concentration (EC50) was determined as 53 nM.

Regarding `Cc1cc(-c2cc(F)cc(Cl)c2)cc(N2CC(C(=O)O)C2)c1` [Example 18, 1-[3-(3-chloro-5-fluorophenyl)-5-methylphenyl]azetidine-3-carboxylic acid], on NURR-1/RXRγ, the maximal response (Emax) stood at 93% and the EC50 worked out at 157 nM. On NURR-1/RXRα, the Emax was determined as 95% and the EC50 is 67 nM.

`Cc1cc(-c2cccc(C3=NC(C)(C)CO3)c2)cc(N2CC(C(=O)O)C2)c1` [Example 19, 1-[3-[3-(4,4-dimethyl-5H-oxazol-2-yl)phenyl]-5-methylphenyl]azetidine-3-carboxylic acid]: at NURR-1/RXRγ, the maximal response (Emax) was 71% and the EC50 was 1770 nM. Also, on NURR-1/RXRα, the Emax worked out at 97% and the EC50 was 1430 nM.

Take `Cc1cc(-c2cccc(C(C)(C)O)c2)cc(N2CC(C(=O)O)C2)c1` [Example 20, 1-[3-[3-(1-hydroxy-1-methylethyl)phenyl]-5-methylphenyl]azetidine-3-carboxylic acid]: the Emax is 69% on NURR-1/RXRγ and 87% on NURR-1/RXRα. In addition, the results for the EC50 on NURR-1/RXRγ and at NURR-1/RXRα were over 5000 nM and 2090 nM, respectively.

As for `Cc1cc(-c2cc(C(F)(F)F)nc3ccccc23)cc(N2CC(C(=O)O)C2)c1` [Example 21, 1-[3-methyl-5-[2-(trifluoromethyl)-4-quinolyl]phenyl]azetidine-3-carboxylic acid], the maximum response (Emax) came out at 101% at NURR-1/RXRγ and 102% on NURR-1/RXRα. Further, the EC50 on NURR-1/RXRγ came to 4 nM; at NURR-1/RXRα it was 13 nM.

`CC(C)COc1ccc(C(F)(F)F)cc1-c1cccc(N2CC(C(=O)O)C2)c1` [Example 94, 1-[3-[2-isobutoxy-5-(trifluoromethyl)phenyl]phenyl]azetidine-3-carboxylic acid]: on NURR-1/RXRα, the maximal effect (Emax) was determined as 48% and the EC50 was found to be 18 nM.

With `COc1ccccc1C(C)Oc1ccc(C(F)(F)F)cc1-c1cccc(N2CC(C(=O)O)C2)c1` (centres unmarked) [Example 95, 1-[3-[2-[1-(2-methoxyphenyl)ethoxy]-5-(triflurooemethyl)phenyl]phenyl]azetidine-3-carboxylic acid], on NURR-1/RXRα, the maximal effect (Emax) was 46% and the EC50 stood at 20 nM.

For the compound `CN1CC2(CCC2)Oc2cc(C(C)(C)C)cc(-c3cccc(N4CC(C(=O)O)C4)c3)c21` [Example 213, tert-butylammonium 1-[3-(7-tert-butyl-4-methyl-spiro[3H-1,4-benzoxazine-2,1′-cyclobutane]-5-yl)phenyl]azetidine-3-carboxylate], on NURR-1/RXRα, the maximal effect (Emax) was found to be 77% and the 50% effective concentration (EC50) was 0.79 nM.

Regarding `CC1(C)CN(CC(F)(F)F)c2c(cc(C(F)(F)F)cc2-c2cccc(N3CC(C(=O)O)C3)c2)O1` [Example 215, tert-butylammonium 1-[3-[2,2-dimethyl-4 (2,2,2-trifluoromethyl)-7-(trifluoromethyl)-3H-1,4-benzoxazin-5-yl]phenyl]azetidine-3-carboxylate], at NURR-1/RXRα, the Emax stood at 61% and the half-maximal effective concentration (EC50) was determined as 1 nM.

Regarding `CC(C)c1ccc2c(c1)CC(C)(C)CN2c1cccc(N2CC(C(=O)O)C2)c1` [Example 245, tert-butylammonium 1-[3-(6-isopropyl-3,3-dimethyl-2,4-dihydroquinolin-1-yl)phenyl]azetidine-3-carboxylate], at NURR-1/RXRα, the maximal effect (Emax) was 89% and the EC50 turned out to be 114 nM.

As for `CC1(C)Oc2cc(C#N)ccc2N(c2cccc(N3CC(C(=O)O)C3)c2)C1=O` [Example 254, tert-butylammonium 1-[3-(7-cyano-2,2-dimethyl-3-oxo-1,4-benzoxazin-4-yl)phenyl]azetidine-3-carboxylate], on NURR-1/RXRα, the Emax came out at 70% and the EC50 stood at 2950 nM.

Turning to `CC1(C)CC(c2cccc(N3CC(C(=O)O)C3)c2)c2ccc(C(F)(F)F)cc2O1` (centres unmarked) [Example 270, tert-butylammonium 1-[3-[2,2-dimethyl-7-(trifluoromethyl)chroman-4-yl]phenyl]azetidine-3-carboxylate], at NURR-1/RXRα, the maximum response (Emax) was 99% and the EC50 turned out to be 5 nM.

In general, EC50 refers to the concentration that produces a half-maximal response. What is called Emax is the maximal effect, on the per cent scale that the assay sets.
